Reference: article PMC10814725, “In Vitro Anti-Inflammatory Study of Limonoids Isolated from Chisocheton Plants” (Current Issues in Molecular Biology, 2024)
Where two headings read alike, the source gives them in different places.

Columns and labels:
[1] = Cell viability by CCK-8, HEK-Blue hTLR4 cells; format: cell-based; conditions: human
Experimental: (§1) The viability of HEK-Blue^TM hTLR4, […], and THP-1 cells was evaluated using the Dojindo Cell Counting Kit-8 (CCK-8) according to the manufacturer’s instructions. The viability of HEK-Blue^TM hTLR4 and THP-1 cells was assessed under identical conditions to the corresponding assay treatments. HEK-Blue^TM hTLR4 cells (2 × 10^4 cells/well) were seeded in 96-well plates and serum-starved for 24 h at 37 °C in a 5% CO2 atmosphere. After incubation, the culture medium was aspirated, and the cells were washed with saline. High-glucose D-MEM supplemented with 0.1% FBS and 1% penicillin–streptomycin was added and pretreated with or without the 17 limonoids at a concentration of 20 µM for 1 h, followed by LPS addition at a concentration of 10 ng/mL. After 18 h of incubation, a 10% (v/v) CCK-8 solution was added to each well and incubated at 37 °C for 1 h, and cell viability was calculated.

[2] = in vitro; format: cell-based; conditions: mouse
Experimental: as §1

[3] = Cell viability by CCK-8, THP-1 cells; format: cell-based; conditions: human, PMA-differentiated THP-1 cells; for CC50 at 18 h: concentration causing 50% cytotoxicity against THP-1 cells
Experimental: as §1
The THP-1 cells at 5 × 10^4 cells/well were differentiated for 24 h in the presence of PMA (0.5 μM solution in medium). After 24 h of incubation, the culture medium was removed from the 96-well plate and the cells were washed with PBS. Fresh RPMI-1640 medium supplemented with 0.1% FBS and 1% penicillin–streptomycin was added to each well and incubated at 37 °C for overnight. The cells were pretreated with 17 limonoids at the corresponding concentration for 1 h followed by the addition of LPS (10 ng/mL) and incubated at 37 °C for 18 h. Furthermore, CCK-8 solution was added to each well with a final concentration was 10% (v/v) and incubated at 37 °C. After 1 h, the absorbance of each well was measured at […] by using a microplate reader (BioTek Cytation 5 Cell Imaging Multimode Reader). Cell viability was calculated using the following formula: % Cell viability=(Absorbance of sample−Absorbance of Background)/(Absorbance of control−Absorbance of Background)×100 where the absorbance of the sample is the absorbance of cells treated by the compound with or without LPS, the absorbance of the control is the absorbance of LPS (−)-treated cells, and the background absorbance is the absorbance of a well containing only the medium. The results were expressed as 100% cell viability.

[4] = test system: TNF-α; experiment: ELISA of TNF-α production in LPS-stimulated THP-1 cells; format: cell-based, human; conditions: for IC50: Homo sapiens, THP-1, 18 h, read-out: TNF-α IC50
[5] = test system: MCP-1; experiment: ELISA of MCP-1 production in LPS-stimulated THP-1 cells; format: cell-based, human; conditions: Homo sapiens; LPS-stimulated (10 ng/mL) THP-1 cells, 1, 5, 10, 20 µM, 18 h
Experimental: (§2) The logarithmic growth phase of THP-1 cells was achieved by seeding in 96-well plates at a density of 5 × 10^4 cells/well and differentiated for 24 h in the presence of PMA (0.5 μM solution in medium). After 24 h of incubation, the culture medium was removed from the 96-well plate and the cells were washed with PBS. […] The cells were pretreated with 17 limonoids at the corresponding concentration for 1 h, followed by the addition of LPS (10 ng/mL) and then incubation at 37 °C for 18 h. Finally, 50 μL of each culture supernatant solution was taken to determine the concentrations of IL-6, MCP-1, and IL-1β using the corresponding commercially available human ELISA kits following the manufacturer’s instructions. The analyte concentration in the supernatant was measured in pg/mL, and the inhibition level was expressed as a fold change compared to the LPS (−) control group. To determine the IC50 value, the dose-response data were normalized to the LPS-stimulated-only group, and the percentage of inhibition was calculated using the following formula: % Inhibition=(Absorbance of LPS+ control−Absorbance of compound treatment with LPS)/(Absorbance of LPS+ control−Absorbance of LPS− control)×100
(§3) Furthermore, the % inhibition data were interpolated into linear equations to determine the IC50 values.

[6] = test system: IL-6; experiment: ELISA of IL-6 production in LPS-stimulated THP-1 cells; format: cell-based, human; conditions: Homo sapiens, THP-1, 18 h, LPS-stimulated (10 ng/mL) THP-1 cells, 1, 5, 10, 20 µM, 18 h
Experimental: as §2, §3

[7] = test system: TNF-α, IL-6, IL-1β, and MCP-1; experiment: ELISA of pro-inflammatory markers overall (TNF-α, IL-6, IL-1β, MCP-1) in LPS-stimulated THP-1 cells; format: cell-based; conditions: Homo sapiens, read-out: Overall IC50 values for the evaluated pro-inflammatory markers
Experimental: The logarithmic growth phase of THP-1 cells was achieved by seeding in 96-well plates at a density of 5 × 10^4 cells/well and differentiated for 24 h in the presence of PMA (0.5 μM solution in medium). After 24 h of incubation, the culture medium was removed from the 96-well plate and the cells were washed with PBS. Fresh RPMI-1640 medium supplemented with 0.1% FBS and 1% Penicillin–Streptomycin was added to each well and incubated at 37 °C overnight. The cells were pretreated with 17 limonoids at the corresponding concentration for 1 h, followed by the addition of LPS (10 ng/mL) and then incubation at 37 °C for 18 h. Finally, 50 μL of each culture supernatant solution was taken to determine the concentrations of IL-6, MCP-1, and IL-1β using the corresponding commercially available human ELISA kits following the manufacturer’s instructions. The analyte concentration in the supernatant was measured in pg/mL, and the inhibition level was expressed as a fold change compared to the LPS (−) control group. To determine the IC50 value, the dose-response data were normalized to the LPS-stimulated-only group, and the percentage of inhibition was calculated using the following formula: % Inhibition=(Absorbance of LPS+ control−Absorbance of compound treatment with LPS)/(Absorbance of LPS+ control−Absorbance of LPS− control)×100
as §3

[8] = test system: phosphorylated-p38 MAPK; experiment: Western blotting of phosphorylated-p38 MAPK in LPS-stimulated THP-1 cells; format: cell-based, human; conditions: 10 µM, LPS 10 ng/mL, 18 h, compared to LPS (+) group
Experimental: THP-1 cells were seeded at a density of 1 × 10^6 cells/well in 24-well plates. The cells were then pretreated with a concentration of 10 µM of compounds 3, 5, 9, or 15 for 1 h. Subsequently, LPS (10 ng/mL) was added to the cells, which were incubated for 18 h. The protein concentrations were determined using a bicinchoninic acid (BCA) assay kit.
For Western blot analysis, proteins were separated by SDS-PAGE and transferred onto a polyvinylidene fluoride (PVDF) membrane. The membranes were blocked with 2.5% BSA in Tris-buffered saline-Tween (TBST) for 1 h at room temperature. After three washes with TBST, the membranes were incubated with a diluted primary antibody solution (anti-phosphorylated-p38 MAPK or anti-p38 MAPK) at a 1:1000 dilution for 1 h at room temperature. After three washes with TBS-T, the membranes were incubated with a secondary antibody conjugated to horseradish peroxidase (HRP; 1:4000 dilution) for 30 min at room temperature and subsequently detected by chemiluminescence. Finally, the bands were visualized and quantified using an ImageQuant 800 GxP system (Cytiva, MA, USA). The results were expressed as ratios relative to the reference protein β-actin.

[9] = Viability Cell (%) HEK-Blue hTLR4 LPS-Induced (10 ng/mL)
[10] = Viability Cell (%) HEK-Blue hTLR4 Without LPS
[11] = LPS 10 ng/mL, read-out: Viability Cell (%) THP-1 LPS-Induced (10 ng/mL)
[12] = without LPS, read-out: Viability Cell (%) THP-1 Without LPS
[13] = RAW264.7 macrophages, 5 µM, read-out: Viability cell (%) RAW 264.7 5 µM
[14] = RAW264.7 macrophages, 10 µM, read-out: Viability cell (%) RAW 264.7 10 µM
[15] = RAW264.7 macrophages, 20 µM, read-out: Viability cell (%) RAW 264.7 20 µM

Row | SMILES | viability at 18 h, 20 µM [1, 9] | viability at 18 h, 20 µM [1, 10] | viability at 5 µM [2] | viability at 10 µM [2] | viability at 20 µM [2] | viability at 18 h, 10 µM [3, 11] | viability at 18 h, 10 µM [3, 12] | other results
1 | CC(=O)O[C@@H]1C[C@H]2C(C)(C)C(=O)C=C[C@]2(C)[C@H]2CC[C@]3(C)C(C(=O)C[C@H]3c3ccoc3)[C@@]21C (stereo partly drawn) [Compound 2, 7α-acetylneotrichilenone] | 75.5 ± 13.8% | 61.2 ± 1.22% | 96.2 ± 3.67% | > 99.9% | > 99.9% | > 99.9% | > 99.9% | 
2 | C[C@@H]1C[C@H]2[C@@H]3CCC4=CC(=O)C=C[C@]4(C)[C@@]3(F)[C@@H](O)C[C@]2(C)[C@@]1(O)C(=O)CO [Dex, dexamethasone, reference compound] |  |  |  |  |  |  |  | IC50 ([4]; LPS-stimulated (10 ng/mL) THP-1 cells, 1, 5, 10, 20 µM, 18 h): 2.17 µM; IC50 [5]: 0.5 µM; IC50 [6]: 0.72 µM; CC50 at 18 h [3]: 28.2 µM
3 | CC(=O)O[C@H]1[C@@H](OC(C)=O)[C@@]2(C)C3=CC[C@@H](C4=CCOC4=O)[C@]3(C)CC[C@@H]2[C@@]2(C)C=CC(=O)C(C)(C)[C@H]12 [Compound 6, lasiocarpine A] |  |  |  |  |  | > 99.9% | 90.7 ± 3.82% | viability at 18 h, 20 µM ([1]; 20 µM, 18 h, LPS 10 ng/mL, read-out: Viability Cell (%) HEK-Blue hTLR4 LPS-Induced (10 ng/mL)): 58.3 ± 1.89%; viability at 18 h, 20 µM ([1]; 20 µM, 18 h, without LPS, read-out: Viability Cell (%) HEK-Blue hTLR4 Without LPS): 77.1 ± 2.13%; viability at 5 µM ([2]; 5 µM, read-out: Viability cell (%) RAW 264.7 5 µM): 103 ± 6.05%; viability at 10 µM ([2]; 10 µM, read-out: Viability cell (%) RAW 264.7 10 µM): > 99.9%; viability at 20 µM ([2]; 20 µM, read-out: Viability cell (%) RAW 264.7 20 µM): 96.7 ± 2.14%
4 | C[C@]12C3=CC[C@@H](C4=CC(O)OC4=O)[C@]3(C)CC[C@@H]1[C@@]1(C)C(=O)C=C[C@@]3(C)CO[C@@H]([C@H]2O)[C@H]13 (some centres unmarked) [Compound 14, pentandricine] | > 99.9% | > 99.9% | > 99.9% | 88.2 ± 3.86% | 91.3 ± 4.19% | 91.1 ± 9.03% | > 99.9% | IC50 [7]: < 20 µM
5 | CC(=O)O[C@H]1[C@@H](OC(C)=O)[C@]2(C)[C@H](CC[C@@]3(C)[C@H](c4ccoc4)C(=O)[C@H]4O[C@@]423)[C@@]2(C)C=CC(=O)C(C)(C)[C@H]12 [Compound 10, 6α-acetylepoxyazadirone] | > 99.9% | > 99.9% | 93.2 ± 4.2% | 82.1 ± 1.31% | 86.1 ± 4.07% | > 99.9% | > 99.9% | 
6 | COc1cc([C@@H]2c3cc4c(cc3[C@@H](O[C@@H]3O[C@@H]5CO[C@@H](C)O[C@H]5[C@H](O)[C@H]3O)[C@H]3COC(=O)[C@H]23)OCO4)cc(OC)c1O [Etoposide, reference compound] |  |  |  |  |  |  |  | viability at 5 µM [2, 13]: 67.5 ± 2.36%; viability at 10 µM [2, 14]: 54.8 ± 2.58%; viability at 20 µM [2, 15]: 38.9 ± 3.19%
7 | C[C@]12C3=CC[C@@H](c4ccoc4)[C@]3(C)CC[C@@H]1[C@@]1(C)C(=O)C=C[C@@]3(C)CO[C@@H]([C@H]2O)[C@H]13 [Compound 12, ceramicine B] | > 99.9% | > 99.9% | > 99.9% | > 99.9% | 89.4 ± 6.9% | 96.7 ± 4.3% | > 99.9% | IC50 [4]: 13.9 µM; TNF-α SI (selectivity index, CC50/IC50) ([4]; THP-1 CC50 / TNF-α IC50): 2.66; Effect on p-p38 MAPK levels [8]: significantly suppressed; CC50 at 18 h [3]: 36.9 µM
8 | CC(=O)O[C@H]1[C@@H](OC(C)=O)[C@@]2(C)C3C(=O)C[C@@H](c4ccoc4)[C@]3(C)CC[C@@H]2[C@@]2(C)C=CC(=O)C(C)(C)[C@H]12 (some centres unmarked) [Compound 7, toonaciliatone F] | 87.3 ± 4% | 92.9 ± 2.11% | > 99.9% | > 99.9% | 95.9 ± 2.19% | > 99.9% | > 99.9% | 
9 | CC(=O)O[C@H]1[C@@H](OC(C)=O)[C@]2(C)[C@H](CCC3=C(c4ccoc4)C[C@@H](O)[C@]32C)[C@@]2(C)C=CC(=O)C(C)(C)[C@H]12 [Compound 8, toonaciliatone C] |  |  |  |  |  | 94 ± 9.84% | > 99.9% | viability at 18 h, 20 µM ([1]; HEK-Blue hTLR4 cells, 20 µM, 18 h, LPS 10 ng/mL, read-out: Viability Cell (%) HEK-Blue hTLR4 LPS-Induced (10 ng/mL)): 88 ± 6.37%; viability at 18 h, 20 µM ([1]; HEK-Blue hTLR4 cells, 20 µM, 18 h, without LPS, read-out: Viability Cell (%) HEK-Blue hTLR4 Without LPS): > 99.9%; viability at 5 µM [2, 13]: 89.5 ± 9.38%; viability at 10 µM [2, 14]: 94.75 ± 0.32%; viability at 20 µM [2, 15]: 87.5 ± 3.33%
10 | CC1(C)C(=O)C=C[C@]2(C)[C@H]3CC[C@]4(C)C(C(=O)C[C@H]4c4ccoc4)[C@]3(C)[C@H](O)C[C@@H]12 (stereo partly drawn) [Compound 1, 7α-hydroxyneotrichilenone] | > 99.9% | > 99.9% | > 99.9% | > 99.9% | > 99.9% | > 99.9% | > 99.9% | 
